Test results taken from patent US20250195536A1, “BICYCLOOCTANE KRAS INHIBITORS” (Incyte Corporation, priority 2023, published 2025).

Columns and labels:
[1] = biological target: KRAS G12D (Homo sapiens, UniProt P01116, G12D); experiment: GDP-GTP exchange assay (KRAS G12D); type: biochemical; conditions: bodipy-GDP/GppNHp exchange with SOS1; 4 h pre-incubation, 2 h reaction;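 further: one dagger IC50 up to 100 nM and two daggers above 100 nM up to 1 μM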
Summary of the method: (§1)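 Bodipy-GDP-loaded KRAS (2.5 nM final) was pre-incubated 4 h at r.t. with inhibitor in Hepes pH 7.5 buffer with MgCl2, then exchange started with GppNHp (500 μM) and SOS1 (150 nM) final. Fluorescence (ex 485/em 520 nm) read after 2 h for G12D, 3 h for G12V; IC50 from four-parameter logistic fit.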

[2] = biological target: KRAS G12V (Homo sapiens, UniProt P01116, G12V); experiment: GDP-GTP exchange assay (KRAS G12V); type: biochemical; conditions: bodipy-GDP/GppNHp exchange with SOS1; 3 h incubation after GppNHp-SOS1;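 further: one dagger IC50 up to 100 nM and two daggers above 100 nM up to 1 μM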
Summary of the method: as §1

[3] = Caco2 assay (permeability, Papp A-B); type: in vitro ADME; conditions: human, Caco-2, absorptive direction (A-B), 50 μM test compound, 4% BSA in receiver
Summary of the method: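 Caco-2 monolayers, 22-25 days on Transwells, TEER 300 Ω·cm^2, dosed apically with 50 μM compound in HBSS; basolateral HBSS with 4% BSA. 120 min at 37 °C, samples quantified by LCMS; Papp (A-B) from receiver-side cumulative flux slope, donor volume, surface area and initial donor amount.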

KRAS G12D, sequence (P01116 1-188 isoform P01116-2 G12D): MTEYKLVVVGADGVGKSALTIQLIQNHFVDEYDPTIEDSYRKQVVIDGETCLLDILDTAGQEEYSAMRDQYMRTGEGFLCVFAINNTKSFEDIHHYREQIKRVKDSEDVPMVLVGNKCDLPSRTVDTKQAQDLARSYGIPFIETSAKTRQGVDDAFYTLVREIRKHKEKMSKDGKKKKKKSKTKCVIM
KRAS G12V, sequence (P01116 1-188 isoform P01116-2 G12V): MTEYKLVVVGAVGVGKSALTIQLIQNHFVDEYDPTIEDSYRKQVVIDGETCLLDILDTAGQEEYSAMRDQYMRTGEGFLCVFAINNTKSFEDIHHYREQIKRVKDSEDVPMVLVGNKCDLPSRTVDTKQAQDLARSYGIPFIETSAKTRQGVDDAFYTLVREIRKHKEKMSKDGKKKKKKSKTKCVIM

| G12D_exchange (KRAS_G12D exchange assay IC50) [1] | G12V_exchange (KRAS_G12V exchange assay IC50) [2] | Papp A→B at 120 min, 50 μM [3] | SMILES |
| --- | --- | --- | --- |
| † | † | ≤ 0.5 ×10⁻⁶ cm/s | Cc1nc2c(F)c(-c3cccc(Cl)c3Cl)c(CCC#N)cc2c2c1cc([C@H]1[C@H]3C[C@H](CN(c4cnn(C)c(=O)c4)C3)N1C(=O)C1CC1)n2[C@H]1[C@H]2CN[C@@H]1C2 (atropisomer, axis not shown; (Ra)) [Example 65, 3-((Ra)-1-((1R,4R,5S)-2-azabicyclo[2.1.1]hexan-5-yl)-2-((1S,5R,7R)-6-(cyclopropanecarbonyl)-3-(1-methyl-6-oxo-1,6-dihydropyridazin-4-yl)-3,6-diazabicyclo[3.2.1]octan-7-yl)-7-(2,3-dichlorophenyl)-6-fluoro-4-methyl-1H-pyrrolo[3,2-c]quinolin-8-yl)propanenitrile] |
| † | † | ≤ 0.5 ×10⁻⁶ cm/s | CCn1ccc(N2C[C@@H]3C[C@H](C2)N(C(=O)C2CC2)[C@H]3c2cc3c(C)nc4c(F)c(-c5cccc(Cl)c5Cl)c(CCC#N)cc4c3n2[C@H]2[C@H]3CN[C@@H]2C3)cc1=O (atropisomer, axis not shown; (Ra)) [Example 67, 3-((Ra)-1-((1R,4R,5S)-2-azabicyclo[2.1.1]hexan-5-yl)-2-((1S,5R,7R)-6-(cyclopropanecarbonyl)-3-(1-ethyl-2-oxo-1,2-dihydropyridin-4-yl)-3,6-diazabicyclo[3.2.1]octan-7-yl)-7-(2,3-dichlorophenyl)-6-fluoro-4-methyl-1H-pyrrolo[3,2-c]quinolin-8-yl)propanenitrile] |
| † | † | ≤ 0.5 ×10⁻⁶ cm/s | Cc1nc2c(F)c(-c3cccc(Cl)c3Cl)c(CCC#N)cc2c2c1cc([C@H]1[C@H]3C[C@H](CN(c4ccn(C(C)C)c(=O)c4)C3)N1C(=O)C1CC1)n2[C@H]1[C@H]2CN[C@@H]1C2 (atropisomer, axis not shown; (Ra)) [Example 68, 3-((Ra)-1-((1R,4R,5S)-2-azabicyclo[2.1.1]hexan-5-yl)-2-((1S,5R,7R)-6-(cyclopropanecarbonyl)-3-(1-isopropyl-2-oxo-1,2-dihydropyridin-4-yl)-3,6-diazabicyclo[3.2.1]octan-7-yl)-7-(2,3-dichlorophenyl)-6-fluoro-4-methyl-1H-pyrrolo[3,2-c]quinolin-8-yl)propanenitrile] |
| † | † | ≤ 0.5 ×10⁻⁶ cm/s | Cc1nc2c(F)c(-c3cccc(Cl)c3Cl)c(CCC#N)cc2c2c1cc([C@H]1[C@H]3C[C@H](CN(c4cc(=O)n(C)cn4)C3)N1C(=O)C1CC1)n2[C@H]1[C@H]2CN[C@@H]1C2 (atropisomer, axis not shown; (Ra)) [Example 69, 3-((Ra)-1-((1R,4R,5S)-2-azabicyclo[2.1.1]hexan-5-yl)-2-((1S,5R,7R)-6-(cyclopropanecarbonyl)-3-(1-methyl-6-oxo-1,6-dihydropyrimidin-4-yl)-3,6-diazabicyclo[3.2.1]octan-7-yl)-7-(2,3-dichlorophenyl)-6-fluoro-4-methyl-1H-pyrrolo[3,2-c]quinolin-8-yl)propanenitrile] |
| † | † | ≤ 0.5 ×10⁻⁶ cm/s | Cc1nc2c(F)c(-c3cccc(Cl)c3Cl)c(CCC#N)cc2c2c1cc([C@H]1[C@H]3C[C@H](CN(c4ccn5cc(C(F)(F)F)nc5c4)C3)N1C(=O)C1CC1)n2[C@H]1[C@H]2CN[C@@H]1C2 (atropisomer, axis not shown; (Ra)) [Example 70, 3-((Ra)-1-((1R,4R,5S)-2-azabicyclo[2.1.1]hexan-5-yl)-2-((1S,5R,7R)-6-(cyclopropanecarbonyl)-3-(2-(trifluoromethyl)imidazo[1,2-a]pyridin-7-yl)-3,6-diazabicyclo[3.2.1]octan-7-yl)-7-(2,3-dichlorophenyl)-6-fluoro-4-methyl-1H-pyrrolo[3,2-c]quinolin-8-yl)propanenitrile] |
| † | † | ≤ 0.5 ×10⁻⁶ cm/s | Cc1nc2c(F)c(-c3cccc(Cl)c3Cl)c(CCC#N)cc2c2c1cc([C@H]1[C@H]3C[C@H](CN(c4ccn5nccc5c4)C3)N1C(=O)C1CC1)n2[C@H]1[C@H]2CN[C@@H]1C2 (atropisomer, axis not shown; (Ra)) [Example 71, 3-((Ra)-1-((1R,4R,5S)-2-azabicyclo[2.1.1]hexan-5-yl)-2-((1S,5R,7R)-6-(cyclopropanecarbonyl)-3-(pyrazolo[1,5-a]pyridin-5-yl)-3,6-diazabicyclo[3.2.1]octan-7-yl)-7-(2,3-dichlorophenyl)-6-fluoro-4-methyl-1H-pyrrolo[3,2-c]quinolin-8-yl)propanenitrile] |
| † | † | ≤ 0.5 ×10⁻⁶ cm/s | Cc1nc2c(F)c(-c3cccc(Cl)c3Cl)c(CCC#N)cc2c2c1cc([C@H]1[C@H]3C[C@H](CN(c4ccn5ncnc5c4)C3)N1C(=O)C1CC1)n2[C@H]1[C@H]2CN[C@@H]1C2 (atropisomer, axis not shown; (Ra)) [Example 72, 3-((Ra)-2-((1S,5R,7R)-3-([1,2,4]triazolo[1,5-a]pyridin-7-yl)-6-(cyclopropanecarbonyl)-3,6-diazabicyclo[3.2.1]octan-7-yl)-1-((1R,4R,5S)-2-azabicyclo[2.1.1]hexan-5-yl)-7-(2,3-dichlorophenyl)-6-fluoro-4-methyl-1H-pyrrolo[3,2-c]quinolin-8-yl) propanenitrile] |
| † | † | ≤ 0.5 ×10⁻⁶ cm/s | Cc1nc2c(F)c(-c3cccc(Cl)c3Cl)c(CCC#N)cc2c2c1cc([C@H]1[C@H]3C[C@H](CN(c4ccoc(=O)c4)C3)N1C(=O)C1CC1)n2[C@H]1[C@H]2CN[C@@H]1C2 (atropisomer, axis not shown; (Ra)) [Example 73, 3-((Ra)-1-((1R,4R,5S)-2-azabicyclo[2.1.1]hexan-5-yl)-2-((1S,5R,7R)-6-(cyclopropanecarbonyl)-3-(2-oxo-2H-pyran-4-yl)-3,6-diazabicyclo[3.2.1]octan-7-yl)-7-(2,3-dichlorophenyl)-6-fluoro-4-methyl-1H-pyrrolo[3,2-c]quinolin-8-yl)propanenitrile] |
| † | † | ≤ 0.5 ×10⁻⁶ cm/s | Cc1nc2c(F)c(-c3cccc(Cl)c3Cl)c(CCC#N)cc2c2c1cc([C@H]1[C@H]3C[C@H](CN(c4ccnc(Br)c4)C3)N1C(=O)C1CC1)n2[C@H]1[C@H]2CN[C@@H]1C2 (atropisomer, axis not shown; (Ra)) [Example 74, 3-((Ra)-1-((1R,4R,5S)-2-azabicyclo[2.1.1]hexan-5-yl)-2-((1S,5R,7R)-3-(2-bromopyridin-4-yl)-6-(cyclopropanecarbonyl)-3,6-diazabicyclo[3.2.1]octan-7-yl)-7-(2,3-dichlorophenyl)-6-fluoro-4-methyl-1H-pyrrolo[3,2-c]quinolin-8-yl)propanenitrile] |
| † | † | 0.5 to 1 ×10⁻⁶ cm/s | Cc1c(N2C[C@@H]3C[C@H](C2)N(C(=O)C2CC2)[C@H]3c2cc3c(C)nc4c(F)c(-c5cccc(Cl)c5Cl)c(CCC#N)cc4c3n2[C@H]2[C@H]3CN[C@@H]2C3)ccnc1F (atropisomer, axis not shown; (Ra)) [Example 76, 3-((Ra)-1-((1R,4R,5S)-2-azabicyclo[2.1.1]hexan-5-yl)-2-((1S,5R,7R)-6-(cyclopropanecarbonyl)-3-(2-fluoro-3-methylpyridin-4-yl)-3,6-diazabicyclo[3.2.1]octan-7-yl)-7-(2,3-dichlorophenyl)-6-fluoro-4-methyl-1H-pyrrolo[3,2-c]quinolin-8-yl)propanenitrile] |
| † | † | ≤ 0.5 ×10⁻⁶ cm/s | COc1cc(N2C[C@@H]3C[C@H](C2)N(C(=O)C2CC2)[C@H]3c2cc3c(C)nc4c(F)c(-c5cccc(Cl)c5Cl)c(CCC#N)cc4c3n2[C@H]2[C@H]3CN[C@@H]2C3)cc(C)n1 (atropisomer, axis not shown; (Ra)) [Example 78, 3-((Ra)-1-((1R,4R,5S)-2-azabicyclo[2.1.1]hexan-5-yl)-2-((1S,5R,7R)-6-(cyclopropanecarbonyl)-3-(2-methoxy-6-methylpyridin-4-yl)-3,6-diazabicyclo[3.2.1]octan-7-yl)-7-(2,3-dichlorophenyl)-6-fluoro-4-methyl-1H-pyrrolo[3,2-c]quinolin-8-yl)propanenitrile] |
| † | † | ≤ 0.5 ×10⁻⁶ cm/s | Cc1cc(N2C[C@@H]3C[C@H](C2)N(C(=O)C2CC2)[C@H]3c2cc3c(C)nc4c(F)c(-c5cccc(Cl)c5Cl)c(CCC#N)cc4c3n2[C@H]2[C@H]3CN[C@@H]2C3)cc(F)n1 (atropisomer, axis not shown; (Ra)) [Example 79, 3-((Ra)-1-((1R,4R,5S)-2-azabicyclo[2.1.1]hexan-5-yl)-2-((1S,5R,7R)-6-(cyclopropanecarbonyl)-3-(2-fluoro-6-methylpyridin-4-yl)-3,6-diazabicyclo[3.2.1]octan-7-yl)-7-(2,3-dichlorophenyl)-6-fluoro-4-methyl-1H-pyrrolo[3,2-c]quinolin-8-yl)propanenitrile] |
